Here are results for four compounds from ChEMBL document CHEMBL1201862, “PubChem BioAssay data set” (2004).

Structures are written as SMILES.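 Grown in 96-well plates, cells were treated for 48 hours with each compound at five concentrations. Insufficient inhibition: endpoint recorded as highest concentration tested. Here, GI50 denotes the concentration required for 50% inhibition of growth.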 Activity calls are given as the source filed them. Rule as the data show it: active = GI50 up to about 1.1 µM and inactive = higher. Bounds are passed on as bounds.

Some test systems named below: 786-0; CAKI-1; CCRF-CEM; DU-145; HCC 2998; HCT-116; HCT-15; HOP-62; LOX IMVI; MDA-N; NCI-H522; SK-MEL-2; SN12C; SR; UACC-62; UO-31; HT-29; SK-MEL-28; SW-620.
Experiment in all cases: growth of human tumour cells (NCI), 48 h

Consider `CCOC(=O)N/N=C(\CC)OCC`, for which the GI50 with 786-0, with CAKI-1, in the assay on CCRF-CEM, in the assay on DU-145, in the assay on HCC 2998 and in the assay on HCT-116 was > 100 µM (inactive) in each case. Besides, the GI50 in the assay with HCT-15 is greater than 100 µM; with HOP-62, > 100 µM (inactive); in the assay on LOX IMVI, > 100 µM (inactive); in the assay on MDA-N, > 100 µM (inactive); in the assay with NCI-H522 it was > 100 µM (inactive); in the assay with SK-MEL-2 it was > 100 µM (inactive). Further, the GI50 in the assay with SN12C, with SR, in the assay on UACC-62 and in the assay with UO-31 was > 100 µM (inactive) throughout.

Turning to `c1ccc2[nH]c(C3CCCCO3)nc2c1` (stereo not drawn), the GI50 with 786-0, in the assay on CAKI-1, in the assay with CCRF-CEM, with DU-145, in the assay with HCC 2998 and in the assay on HCT-116 was > 100 µM (inactive) throughout. The GI50 with HCT-15 is greater than 100 µM; in the assay on HOP-62, > 100 µM (inactive); in the assay on HT-29 it was > 100 µM (inactive); with LOX IMVI it was > 100 µM (inactive); in the assay with MDA-N, > 100 µM (inactive); with NCI-H522, > 100 µM (inactive). The GI50 with SK-MEL-28, with SK-MEL-2, with SN12C, in the assay on SR, in the assay with SW-620 and in the assay on UACC-62 was > 100 µM (inactive) in each case. In addition, the GI50 in the assay with UO-31 is > 100 µM (inactive).

For `CCCC(=O)NC(Nc1ccc(S(=O)(=O)Nc2cc(C)on2)cc1)(C(=O)OCC)C(F)(F)F` (stereo not drawn), the GI50 in the assay with 786-0, in the assay with CAKI-1, in the assay with CCRF-CEM, in the assay on DU-145, in the assay with HCC 2998 and with HCT-116 was > 100 µM (inactive) throughout. The GI50 in the assay on HCT-15 was greater than 100 µM; in the assay on HOP-62 it was > 100 µM (inactive); with HT-29, > 100 µM (inactive); in the assay with LOX IMVI it was > 100 µM (inactive); in the assay with MDA-N, > 100 µM (inactive); in the assay with NCI-H522, > 100 µM (inactive). Moreover, the GI50 in the assay on SK-MEL-28 is > 100 µM (inactive); in the assay with SK-MEL-2 it was > 100 µM (inactive); in the assay on SN12C, > 100 µM (inactive); with SR it was 9.75 µM (inactive); with SW-620, > 100 µM (inactive); in the assay on UACC-62 it was > 100 µM (inactive). The GI50 with UO-31 is > 100 µM (inactive).

For `O=C1c2cc([N+](=O)[O-])cnc2S(=O)(=O)N1c1ccc(Br)cc1`, the GI50 with 786-0, in the assay with CAKI-1, with CCRF-CEM, with DU-145, in the assay on HCC 2998 and in the assay with HCT-116 was > 100 µM (inactive) in each case. The GI50 in the assay with HCT-15 is greater than 100 µM; in the assay on HOP-62, > 100 µM (inactive); with HT-29, > 100 µM (inactive); in the assay on LOX IMVI it was > 100 µM (inactive); in the assay on MDA-N, > 100 µM (inactive); with NCI-H522, > 100 µM (inactive). Moreover, the GI50 in the assay with SK-MEL-28, in the assay with SK-MEL-2, with SN12C, in the assay on SR, with SW-620 and in the assay with UACC-62 was > 100 µM (inactive) each time. Besides, the GI50 in the assay with UO-31 is > 100 µM (inactive).
